{"source": "patent US9676820B2", "about": "“Method for inhibiting proliferation of high LIX1L-expressing tumor cell, and tumor cell proliferation-inhibiting peptide” (National University Corporation Hamamatsu University School …, priority 2013, dated 2017)", "key": {"MKN45 strain": {"tested_on": "MKN45 strain", "assay": "MTT assay, MKN45 strain", "assay_type": "cell-based", "method": "Specifically, first, cells plated in a 96-well microplate such that the density thereof became 5×10^3 cells/well were cultured for one night in a culture solution having the same composition as those in the reference examples. […] After the culturing, an MTT-containing PBS solution was added to the culture solution, and the mixture was incubated for 4 hours. Then, formazan which was generated by putting 100 μL of isopropanol (containing 34 (v/v) % of hydrochloric acid) into each of the wells was dissolved. The absorbance of each of the wells of the microplate at 570 nm was measured using a microplate reader. As controls, culturing was performed in the same manner except that no peptide was added to the strains, an MTT assay was performed thereon, and the absorbance at 570 nm was measured (untreated).\nIn the method for measuring the viable cell counts, cells were cultured for 3 days similarly to Example 1 except that a 25 μM (10 μM for an HL-60 strain, a K562 strain, and a U937 strain) culture solution containing a control peptide or a peptide 1 was used, and the viable cell counts were measured. As a comparison, culturing was performed similarly to the above using a culture solution containing no peptide, and the viable cell counts were measured (untreated).\nIn addition, in the method for performing an MTT assay, cells were cultured for 72 hours similarly to Example 2 except that a peptide to be added to a strain was set to a control peptide or a peptide 1 at 25 μM (10 μM for an HL-60 strain, a K562 strain, and a U937 strain), an MTT assay was performed thereon, and the absorbance at 570 nm was measured. As a comparison, culturing was performed similarly to the above using a culture solution containing no peptide, and the MTT assay was performed thereon (untreated).\nSpecifically, the cells were cultured for 72 hours similarly to Example 2 except that a peptide to be added to a cell was set to a peptide 1, 2, 5, or 6, MTT assays were performed thereon, and the absorbance at 570 nm was measured. As a comparison, culturing was performed similarly to the above using a culture solution containing no peptide, and the MTT assay was performed thereon (untreated).\nSpecifically, the cells were cultured for 72 hours similarly to Example 2 except that peptides to be added to cell strains were set to peptides 7 to 14, MTT assays were performed thereon, and the absorbance at 570 nm was measured. […]\nSpecifically, the cells were cultured for 72 hours similarly to Example 2 except that a peptide to be added to a cell strain was set to a peptide 15 or 16, an MTT assay was performed thereon, and the absorbance at 570 nm was measured. […]"}, "MKN45 cell strains": {"tested_on": "MKN45 cell strains", "assay": "Cancer mouse model transplanted with MKN45 cell strain", "assay_type": "in vivo", "conditions": "nude mice with MKN45 transplant", "method": "Rearing of 10 nude male mice (BALB/cAJcl-nu/nu, purchased from CLEA Japan, Inc.) at the age of 7 weeks was started, and MKN45 cell strains separately cultured were transplanted into the mice by being subcutaneously injected thereinto on day 31. The day on which the transplantation was performed was set as day 0, the mice were divided into two groups (peptide 1-administered group and control peptide-administered group) of 5 mice on day 14 of the transplantation, 4 mice were selected among the 5 mice from each group, and the peptide 1 or the control peptide was administered. The remaining one mouse was set as a spare. In the peptide 1-administered group, 100 μL of a 30 μM peptide 1 solution (solution prepared by adding a methylcellulose solution to the solution after the peptide 1 was dissolved in PBS (−)) was subcutaneously injected into a tumor site (site into which the MKN45 cell strain was injected) 4 times every 3 days. In the control peptide-administered group, 100 μL of a 30 μM control peptide solution (solution prepared by adding a methylcellulose solution to the solution after the control peptide was dissolved in PBS (−)) was subcutaneously injected into a tumor site 4 times on the same days as those in the peptide 1-administered group.\nThe results in which the points of time (days) at which a peptide solution was administered to each mouse and the volume (mm^3) of a tumor site were temporally measured are shown in FIG. 21. For the volume of the tumor site, the width and the length of the tumor site determined from the appearance of the mouse were measured and calculated using the following formula. [Volume(mm^3) of Tumor Site]=([Width(mm) of Tumor Site]^2×[Length(mm) of Tumor Site])/2\nThe “width of tumor site” referred herein means a maximum width of a portion in which the skin has risen due to the tumor and the “length of tumor site” means a maximum length of a portion in which the skin has risen due to the tumor."}, "RPMI8226 strain": {"tested_on": "RPMI8226 strain", "assay": "Viable cell counts (Trypan blue staining), RPMI8226 strain", "assay_type": "cell-based", "conditions": "5 μM peptide, up to 72 hours, vs untreated", "method": "Specifically, cells plated such that the density thereof became 1×10^4 cells/3.5 cm well for one plate (6 wells/plate) for each cell strain were cultured for one night in a culture solution having the same composition as those of the culture solutions described in the reference examples. After culturing of 1 well out of the 6 wells was completed, Trypan blue staining was performed on the 1 well, and viable cell counts were counted. The remaining 5 wells were cultured after exchanging the culture solution with a liquid mixture of a Lipofectamine (registered trademark) reagent (12.5 μL/well) and a culture solution (2 mL/well) of which the shRNA concentration became 2.5 μg/well. Then, Trypan blue staining was performed on 1 well 24 hours after the exchange of a culture medium, 1 well 48 hours after the exchange of a culture medium, and the remaining 1 well 72 hours after the exchange of a culture medium, and the viable cell counts were counted. As a control, the viable cell counts were measured (untreated) by performing the culturing similarly to the above except that a culture medium was exchanged with a culture solution to which no shRNA was added. […]"}, "KATO-III strain": {"tested_on": "KATO-III strain", "assay": "MTT assay, KATO-III strain", "assay_type": "cell-based", "conditions": "MTT assay, 72 hours", "method": "Specifically, first, cells plated in a 96-well microplate such that the density thereof became 5×10^3 cells/well were cultured for one night in a culture solution having the same composition as those in the reference examples. Thereafter, the culture solution was exchanged with 100 μL of a culture solution of which the concentration of peptides is 0 μM to 100 μM for culturing for 72 hours. After the culturing, an MTT-containing PBS solution was added to the culture solution, and the mixture was incubated for 4 hours. Then, formazan which was generated by putting 100 μL of isopropanol (containing 34 (v/v) % of hydrochloric acid) into each of the wells was dissolved. The absorbance of each of the wells of the microplate at 570 nm was measured using a microplate reader. As controls, culturing was performed in the same manner except that no peptide was added to the strains, an MTT assay was performed thereon, and the absorbance at 570 nm was measured (untreated)."}}, "data": [{"smiles": "CC(C)[C@H](NC(=O)[C@H](Cc1ccc(O)cc1)NC(=O)[C@H](CS)NC(=O)[C@@H](NC(=O)[C@H](Cc1ccc(O)cc1)NC(=O)[C@@H]1CCCN1C(=O)[C@@H]1CCCN1C(=O)[C@H](CO)NC(=O)[C@H](CC(N)=O)NC(=O)[C@H](CO)NC(=O)[C@@H]1CCCN1C(=O)CCCCCNC(=O)[C@H](CCCNC(=N)N)NC(=O)[C@H](CCCNC(=N)N)NC(=O)[C@H](CCCNC(=N)N)NC(=O)[C@H](CCC(N)=O)NC(=O)[C@H](CCCNC(=N)N)NC(=O)[C@H](CCCNC(=N)N)NC(=O)[C@H](CCCCN)NC(=O)[C@H](CCCCN)NC(=O)[C@H](CCCNC(=N)N)NC(=O)CNC(=O)[C@@H](N)Cc1ccc(O)cc1)C(C)C)C(N)=O", "note": "[peptide 1, YGRKKRRQRRR-X-PSNSPPYVCYV-NH2]", "values": [{"measurement": "cell proliferation (MTT assay, absorbance at 570 nm)", "setting": "MKN45 strain; 72 hours, peptide concentrations up to 250 μM", "value": "inhibited"}, {"measurement": "cell proliferation (viable cell counts and MTT assay)", "setting": "MKN45 strain; peptide 25 μM, 3 days / 72 hours", "value": "inhibited"}, {"measurement": "body weight", "setting": "MKN45 cell strains; 100 μL of 30 μM peptide solution 4 times, vs spare mice given nothing", "value": "no particularly significant change"}, {"measurement": "volume (size) of the tumor site", "setting": "MKN45 cell strains; 100 μL of 30 μM peptide solution subcutaneously into tumor site 4 times every 3 days from day 14", "value": "rarely changed"}, {"measurement": "viable cell counts", "setting": "RPMI8226 strain", "value": "the same as those in the untreated case"}, {"measurement": "concentration at which a dominant effect of inhibiting the cell proliferation was recognized", "setting": "KATO-III strain", "value": "greater than or equal to 25 μM"}]}]}
